Article PMC6562672, “Dose-Dependent Sorafenib-Induced Immunosuppression Is Associated with Aberrant NFAT Activation and Expression of PD-1 in T Cells” (Cancers, 2019)
Read-outs that look alike come from different tables or passages of the source.

Experiments:
HCC = assay: Efficacy against HCC in WHV-infected woodchucks (ultrasound); assay type: in vivo, woodchuck (Marmota monax); conditions: for median time from first detection of tumor to 2 cm HCC: placebo 55 days; for median time to tumor development: long-term, placebo 295 days, p = 0.35
Excerpt: Male and female eastern woodchucks (Marmota monax) from two different institutes were used. WHV-infected woodchucks from Cornell University (15) were used for a long-term efficacy study, and six woodchucks in a short-term efficacy study were bred at Roswell Park Comprehensive Cancer Institute Center. Woodchucks were infected at 3–5 days of age with dilute serum from standard infectious pools derived from WHV carriers. Pups were inoculated with diluted, pooled serum from WHV^+ animals. The inoculum was prepared from pooled serum of WHV^+ animals that is diluted aseptically 1:10 in PBS. In a biological safety cabinet, each pup is manually restrained and 100 microliters of inoculum is injected subcutaneously in the intrascapular region. Chronic infection was verified at approximately 3, 6, and 9 months of age by WHV viral titer status. Once the pups are confirmed WHV positive, they were monitored by ultrasound (Philips HDI 5000, Amsterdam, The Netherlands) to confirm the presence of HCC.
In total, 21 animals bearing one or more liver tumors were included in this study for 2 separate experiments. While receiving sorafenib or placebo, animals were monitored with ultrasound every 2 weeks for tumor development greater than 5 mm in diameter. […] Tumor volume was calculated using this formula: volume = shortest axis^2 × longest axis × 0.52.
(§1) All WHV carrier woodchucks were randomly divided into three groups such as placebo, low dose (2.5 mg/kg/day), and high dose (5.0 mg/kg/day) groups (n = 5 animals/group) in a long-term efficacy study based on clinical and preclinical studies. Also, a compartmental pharmacokinetic (PK) model was used to select the two lowest doses that can achieve exposure sufficient to inhibit pharmacodynamic targets. Experimental woodchucks were treated with placebo, 2.5 mg/kg, or 5.0 mg/kg sorafenib once daily with a 5 days on and 2 days off schedule. Animals were dosed orally until tumor development. Another experiment was performed with the low (2.5 mg/kg/day) and high (5.0 mg/kg/day) dose groups (n = 3 animals/group) to see the efficacy of short-term (90 days treatment) usage of sorafenib. The primary endpoint of the in vivo study was disease free survival (DFS), and DFS was measured from the date of randomization until the date of any liver tumor detection. The secondary endpoint was tumor size over 2 cm, which was measured from the date of first tumor detection. All experimental protocols were approved by IACUC.

woodchuck T cells = assay: One-way mixed lymphocyte reaction (MLR), woodchuck T cells, CFSE; assay type: cell-based; conditions: woodchuck vs. human MLR, 0–10 µM, dose responsive, 96 h
Method: (§2) Flow cytometry acquisition and compensation was performed on a LSR Fortessa (BD Biosciences, San Jose, CA, USA). Analysis of listmode data was performed using Winlist 8.0 (Verity Software House, Inc., Topsham, ME, USA). Briefly, the viable responder lymphocytes were hierarchically gated for single, low side scatter, viable cells with absent CD45 labeling. The percentage of proliferating cells was determined based on CFSE dye dilution compared to the CFSE labeling intensity from the non-proliferating MLR negative control sample. The full list of antibodies and reagents used in assays is available in Table S1.
(§3) Mixed lymphocyte reactions were performed in human (human vs. human, Figure 1E) and woodchucks (woodchuck vs. human, Figure 1F). 10 mL peripheral blood from healthy donors and 3 mL woodchuck peripheral blood isolated. Stimulator cells (human cells for both assays) were irradiated at 40 Gy in a Mark I Cesium-137 irradiator for 20 min. Following irradiation, cells were stained for CD45-APC (BD Biosciences, San Jose, CA, USA). Responder cells (non-irradiated human or woodchuck cells) were labeled with CFSE (Thermo Fisher Scientific, Eugene, OR, USA). Target and responder cells were placed in a round bottom 96 well polypropylene plate at a 2:1 ratio in the presence of 0–10 µM sorafenib and incubated at 37 °C for 96 h. […]

[1] = cited from earlier work
[2] = Plasma pharmacokinetics of oral sorafenib in woodchucks (LC-MS/MS, noncompartmental analysis); assay type: in vivo, woodchuck (Marmota monax); conditions: for AUC / Cmax / Tmax: plasma, po; for AUC / Cmax / Tmax / Cmax/D, Geo Mean (%CV): woodchuck plasma; for Cmax: read-out: Cmax, Geo Mean (%CV); for Tmax: read-out: Tmax, Geo Mean (%CV)
Method: Woodchuck plasma study samples were analyzed for sorafenib with an LC-MS/MS assay using authentic standards of sorafenib and the internal standard (IS), d3-sorafenib, both obtained from Toronto Research Chemicals (Toronto, ON, Canada). Study samples were quantitated using calibration and quality control (QC) samples prepared by spiking sorafenib into sodium heparinized human plasma (Bioreclamation, LLC, Westbury, NY, USA). The woodchuck plasma study samples were extracted using a Quadra 4 SPE Automated Liquid Handling System (Tomtec Inc., Hamden, CT, USA) by mixing a 50 µL aliquot of a calibrator, QC, plasma blank, or study sample with 500 µL of ice cold acetonitrile containing the IS for the LC-MS/MS. LC-MS/MS analysis was performed using a Finnigan Surveyor MS Pump Plus and Thermo Pal Autosampler System interfaced with a TSQ Quantum Ultra Mass Spectrometer, all obtained from Thermo Fisher Scientific (Waltham, MA, USA). A noncompartmental pharmacokinetic analysis (NCA) was performed on individual concentration-time data using a linear trapezoidal, linear/log interpolation calculation method with uniform weighting. The software program utilized for this analysis was Phoenix 64 WinNonlin Version 6.3 (Pharsight Corp., St. Louis, MO, USA). Study sample (n = 9) concentrations that were above the lower limit of quantitation (LLOQ) of the assay (62.5 ng/mL) following dose administration (Day 1: pre-dose and 1, 3, 5, 7 and 24 h; Day 19: pre-dose and 1, 3, 5, and 7 h) were used in the NCA.
as §1

human T cells = assay: One-way mixed lymphocyte reaction (MLR), human T cells, CFSE; assay type: cell-based; conditions: high dose (10 µM), 96 h
Method: as §2, §3

[3] = 2.5 mg/kg, oral 2.5 mg/kg, Day 1
[4] = 2.5 mg/kg, oral 2.5 mg/kg, Day 19
[5] = 5 mg/kg, oral 5.0 mg/kg, Day 19

## CNC(=O)c1cc(Oc2ccc(NC(=O)Nc3ccc(Cl)c(C(F)(F)F)c3)cc2)ccn1 [sorafenib, Sorafenib]
HCC; 2.5 mg/kg
  median time from first detection of tumor to 2 cm HCC: 111 days
HCC; 5 mg/kg
  median time from first detection of tumor to 2 cm HCC: 42 days
HCC; high dose 5.0 mg/kg/day
  median time to tumor development: 351 days
HCC; high dose vs placebo, p = 0.5
  tumor growth delay: failed to show any tumor growth delay effect
HCC; long-term treatment, regardless of doses of sorafenib (15 woodchucks incl. placebo)
  animals that developed HCC: 100%
HCC; low dose 2.5 mg/kg/day compared to placebo and high dose groups
  tumor size when first detected by ultrasound: smaller
HCC; low dose 2.5 mg/kg/day
  median time to tumor development: 384 days
HCC; low dose vs placebo and high dose, p = 0.024
  tumor growth delay: significant tumor growth delay
HCC; short-term usage, 90 days, n = 3/group
  tumor growth delay with low dose compared to high dose: not achieved
HCC; sorafenib treatments compared to placebo
  prevention of HCC and inhibition of WHV replication: did not prevent HCC or inhibit WHV replication
Woodchuck T cells
  MLR response (T cell proliferation): inhibition of the woodchuck MLR response
[1]; clinical trials
  plasma concentration of sorafenib in clinical trials: approximately 2 mg/L
[1]; conversion of 2 mg/L
  plasma concentration of sorafenib in clinical trials: 4 µM
[1]; patients, multiple oral dosing
  time to steady-state concentrations: 7 days
[2]; 5.0 vs 2.5 mg/kg, Day 1
  Cmax/D of high dose group relative to low dose group: ~ 8 times
[2]; 5.0 vs 2.5 mg/kg, Day 19
  Cmax/D of high dose group compared with low dose group: the same
[2]; 2.5 mg/kg, oral 2.5 mg/kg, Day 1, read-out: AUC1–7 h, Geo Mean (%CV)
  AUC: 588 ng·h/mL
[2]; 2.5 mg/kg, oral 2.5 mg/kg, Day 1, read-out: AUCAll, Geo Mean (%CV)
  AUC: 2600 ng·h/mL
[2]; [3]
  Cmax: 136 ng/mL
  Tmax: 5.92 h
[2]; 2.5 mg/kg, oral 2.5 mg/kg, Day 19, read-out: AUC1–7 h, Geo Mean (%CV)
  AUC: 26800 ng·h/mL
[2]; 2.5 mg/kg, oral 2.5 mg/kg, Day 19, read-out: AUCAll, Geo Mean (%CV)
  AUC: 30300 ng·h/mL
[2]; [4]
  Cmax: 4970 ng/mL
  Tmax: 4.22 h
[2]; 5 mg/kg, oral 5.0 mg/kg, Day 1, read-out: AUC1–7 h, Geo Mean (%CV)
  AUC: 5960 ng·h/mL
[2]; 5 mg/kg, oral 5.0 mg/kg, Day 1, read-out: AUCAll, Geo Mean (%CV)
  AUC: 21000 ng·h/mL
[2]; 5 mg/kg, oral 5.0 mg/kg, Day 1
  Cmax: 1170 ng/mL
  Tmax: 3.98 h
[2]; 5 mg/kg, oral 5.0 mg/kg, Day 19, read-out: AUC1–7 h, Geo Mean (%CV)
  AUC: 39100 ng·h/mL
[2]; [5]
  Cmax: 7380 ng/mL
  Tmax: 3.98 h
[2]; oral 2.5 mg/kg, Day 1
  Cmax/D, Geo Mean (%CV): 2, 54.4 (3.41) (ng/mL)/(mg/kg)
[2]; oral 2.5 mg/kg, Day 19
  Cmax/D, Geo Mean (%CV): 3, 1990 (19.8) (ng/mL)/(mg/kg)
[2]; oral 5.0 mg/kg, Day 1
  Cmax/D, Geo Mean (%CV): 3, 433 (75.8) (ng/mL)/(mg/kg)
[2]; oral 5.0 mg/kg, Day 19
  Cmax/D, Geo Mean (%CV): 3, 2000 (54.5) (ng/mL)/(mg/kg)
Human T cells
  MLR response (T cell proliferation): significant decrease
